These results are taken from PMC10766964, “Copper-catalyzed synthesis of pyrazolo[1,5-a]pyrimidine based triazole-linked glycohybrids: mechanistic insights and bio-applications” (Scientific Reports, 2024).

Like-named read-outs stand apart in the source and are kept apart here.

For the experiment, the system named is MDA-MB-231 (human breast cancer) cell line. Kind of experiment: MTT cell viability assay in MDA-MB-231 cells. Type of experiment: cell-based. The settings on record: 72 h; for viability at 20 µM: positive control at 20 µM. Here is the method: Thus, we screened the synthesized library of pyrazolo[1,5-a]pyrimidin-7-ols 4a–4i. Anticancer activity (in terms of growth inhibition/decreased cell viability with respect to control) of all synthesized compounds (n = 9) was investigated by MTT assay in MDA-MB-231 (human breast cancer) cell line at different concentrations for 72 h. […] Thus, it was aimed to investigate the anticancer activity of a synthesized library of triazole-linked glycohybrids of pyrazolo[1,5-a]pyrimidines. […] The MTT assay was used to investigate the anticancer activity of twenty-seven synthesized compounds on the growth inhibition and decrement in cell viability of MDA-MB-231 (human breast cancer). Different concentrations were tested for 72 h, and the results were compared to a control. MDA-MB-231, a human breast cancer cell line, was cultured under standard conditions. Specifically, they were grown in Dulbecco’s Modified Eagle’s Medium (DMEM) supplemented with 10% heat-inactivated Fetal Bovine Serum (FBS) and 1% penicillin–streptomycin. The cells were maintained as a monolayer in a 100 mm culture plate and were used for experiments before reaching their 8th passage. Subculturing was performed every third-day using trypsin EDTA treatment. All incubation and maintenance procedures were carried out in a humidified CO2 incubator at 37 °C. To evaluate cell viability, the MTT assay was conducted following standard procedures. After 72 h of cell incubation with or without each compound, cell viability was assessed using MTT (3-(4,5-dimethylthiazol-2-yl)-2,5-diphenyltetrazolium bromide), which is a colorimetric method for determining the number of viable cells in various assays including proliferation, cytotoxicity, or chemosensitivity. The MTT reagent was added to the cells after removal of the medium and incubated for 3 h at 37 °C in the CO2 incubator. The formazan product, which is […] in the tissue culture medium, was dissolved in DMSO, and the absorbance of the formazan product was directly measured at 595 nm using a multimode plate reader without additional processing. The absorbance values are directly proportional to the number of viable cells in culture. The percentage of viable cells in each group was determined relative to the untreated control cells.
A general note: Tetrazolium assays rely on reduction of a dye to a coloured formazan, in cell work by metabolically active cells.

The mark [1] stands for this setting: Table 2, MDA-MB-231, MTT, read-out: Cell viability (%) ± SD.
Setting [2] is: Table 1, MDA-MB-231, MTT, read-out: Cell Viability (%) ± SD.

What is called viability is a read-out of living cells in per cent, often relative to untreated cells.

Consider `CC(=O)OC[C@H]1O[C@@H](n2cc(COc3cc(-c4ccc5ccccc5c4)nc4ccnn34)nn2)[C@H](OC(C)=O)[C@@H](OC(C)=O)[C@H]1OC(C)=O` [Compound 10h, (2R,3S,4S,5R,6R)-2-(acetoxymethyl)-6-(4-(((5-(naphthalen-2-yl)pyrazolo[1,5-a]pyrimidin-7-yl)oxy)methyl)-1H-1,2,3-triazol-1-yl)tetrahydro-2H-pyran-3,4,5-triyl triacetate], for which, under setting [1], the viability at 10 µM was determined as 75 ± 8.31%, the viability at 25 µM was found to be 89.6 ± 9.91% and the viability at 50 µM was 57.7 ± 10.8%.

Regarding `CC(=O)OC[C@H]1O[C@H](n2cc(COc3cc(-c4ccc(Br)cc4)nc4ccnn34)nn2)[C@@H](OC(C)=O)[C@@H](OC(C)=O)[C@@H]1OC(C)=O` [Compound 11c, (2R,3R,4S,5S,6S)-2-(acetoxymethyl)-6-(4-(((5-(4-bromophenyl)pyrazolo[1,5-a]pyrimidin-7-yl)oxy)methyl)-1H-1,2,3-triazol-1-yl)tetrahydro-2H-pyran-3,4,5-triyl triacetate], under setting [1], the viability at 10 µM worked out at 81.3 ± 7.65%, the viability at 25 µM was found to be 76.5 ± 6.58% and the viability at 50 µM is 72.5 ± 8.45%.

As for `CC(=O)OC[C@H]1O[C@@H](n2cc(COc3cc(-c4ccc(C(C)C)cc4)nc4ccnn34)nn2)[C@H](OC(C)=O)[C@@H](OC(C)=O)[C@@H]1OC(C)=O` [Compound 9g, (2R,3R,4S,5R,6R)-2-(acetoxymethyl)-6-(4-(((5-(4-isopropylphenyl)pyrazolo[1,5-a]pyrimidin-7-yl)oxy)methyl)-1H-1,2,3-triazol-1-yl)tetrahydro-2H-pyran-3,4,5-triyl triacetate], under setting [1], the viability at 10 µM came out at 110 ± 13.5%, the viability at 25 µM worked out at 103 ± 3.51% and the viability at 50 µM stood at 68.5 ± 17.7%.

For `CC(=O)OC[C@H]1O[C@H](n2cc(COc3cc(-c4ccc(F)cc4)nc4ccnn34)nn2)[C@@H](OC(C)=O)[C@@H](OC(C)=O)[C@@H]1OC(C)=O` [Compound 11e, (2R,3R,4S,5S,6S)-2-(acetoxymethyl)-6-(4-(((5-(4-fluorophenyl)pyrazolo[1,5-a]pyrimidin-7-yl)oxy)methyl)-1H-1,2,3-triazol-1-yl)tetrahydro-2H-pyran-3,4,5-triyl triacetate], under setting [1], the viability at 10 µM came out at 98.4 ± 3.62%, the viability at 25 µM came out at 90.1 ± 6.77% and the viability at 50 µM is 88.6 ± 6.27%.

For the compound `CC1=CC(=O)c2ccccc2C1=O` [Menadione, menadione, reference compound], the viability at 20 µM is, setting by setting: under setting [2], 21.8 ± 4.7%; under setting [1], 20.8 ± 6.7%.

On to `Oc1cc(-c2ccc3ccccc3c2)nc2ccnn12` [Compound 4h], for which, under setting [2], the viability at 10 µM is 89.1 ± 4.09%, the viability at 25 µM came out at 86.5 ± 2.58% and the viability at 50 µM came out at 84.4 ± 7.36%.

Regarding `CC(=O)OC[C@H]1O[C@@H](n2cc(COc3cc(-c4ccc5c(c4)OCO5)nc4ccnn34)nn2)[C@H](OC(C)=O)[C@@H](OC(C)=O)[C@@H]1OC(C)=O` [Compound 9i, (2R,3R,4S,5R,6R)-2-(acetoxymethyl)-6-(4-(((5-(benzo[d][1,3]dioxol-5-yl)pyrazolo[1,5-a]pyrimidin-7-yl)oxy)methyl)-1H-1,2,3-triazol-1-yl)tetrahydro-2H-pyran-3,4,5-triyl triacetate], under setting [1], the viability at 10 µM was 85.1 ± 4.09%, the viability at 25 µM was determined as 82.5 ± 2.58% and the viability at 50 µM was found to be 80.4 ± 7.36%.

In the case of `COc1ccc(-c2cc(OCc3cn([C@@H]4O[C@H](COC(C)=O)[C@@H](OC(C)=O)[C@H](OC(C)=O)[C@H]4OC(C)=O)nn3)n3nccc3n2)cc1` [Compound 9b, (2R,3R,4S,5R,6R)-2-(acetoxymethyl)-6-(4-(((5-(4-methoxyphenyl)pyrazolo[1,5-a]pyrimidin-7-yl)oxy)methyl)-1H-1,2,3-triazol-1-yl)tetrahydro-2H-pyran-3,4,5-triyl triacetate], under setting [1], the viability at 10 µM stood at 95.4 ± 5.38%, the viability at 25 µM was determined as 85.5 ± 6.74% and the viability at 50 µM was 83.4 ± 4.16%.

Take `Oc1cc(-c2ccc(C(F)(F)F)cc2)nc2ccnn12` [Compound 4f]: under setting [2], the viability at 10 µM was 92.2 ± 8.51%, the viability at 25 µM worked out at 88.8 ± 8.75% and the viability at 50 µM came to 72.8 ± 7.02%.

In the case of `COc1ccc(-c2cc(OCc3cn([C@@H]4O[C@H](COC(C)=O)[C@H](OC(C)=O)[C@H](OC(C)=O)[C@H]4OC(C)=O)nn3)n3nccc3n2)cc1` [Compound 10b, (2R,3S,4S,5R,6R)-2-(acetoxymethyl)-6-(4-(((5-(4-methoxyphenyl)pyrazolo[1,5-a]pyrimidin-7-yl)oxy)methyl)-1H-1,2,3-triazol-1-yl)tetrahydro-2H-pyran-3,4,5-triyl triacetate], under setting [1], the viability at 10 µM stood at 92.5 ± 9.39%, the viability at 25 µM came to 85.2 ± 8.63% and the viability at 50 µM turned out to be 70.5 ± 6.24%.

Consider `Cc1ccc(-c2cc(O)n3nccc3n2)cc1` [Compound 4a], for which, under setting [2], the viability at 10 µM worked out at 91.4 ± 4.38%, the viability at 25 µM came to 85.5 ± 3.74% and the viability at 50 µM is 84.4 ± 2.16%.

For the compound `Oc1cc(-c2ccc(Cl)cc2)nc2ccnn12` [Compound 4d], under setting [2], the viability at 10 µM turned out to be 98.6 ± 2.25%, the viability at 25 µM is 95.2 ± 1.96% and the viability at 50 µM is 87.2 ± 9.22%.

As for `CC(=O)OC[C@H]1O[C@H](n2cc(COc3cc(-c4ccc(Cl)cc4)nc4ccnn34)nn2)[C@@H](OC(C)=O)[C@@H](OC(C)=O)[C@@H]1OC(C)=O` [Compound 11d, (2R,3R,4S,5S,6S)-2-(acetoxymethyl)-6-(4-(((5-(4-chlorophenyl)pyrazolo[1,5-a]pyrimidin-7-yl)oxy)methyl)-1H-1,2,3-triazol-1-yl)tetrahydro-2H-pyran-3,4,5-triyl triacetate], under setting [1], the viability at 10 µM turned out to be 95.8 ± 5.85%, the viability at 25 µM was determined as 92.1 ± 6% and the viability at 50 µM is 89 ± 1.1%.

In the case of `CC(=O)OC[C@H]1O[C@@H](n2cc(COc3cc(-c4ccc(C)cc4)nc4ccnn34)nn2)[C@H](OC(C)=O)[C@@H](OC(C)=O)[C@H]1OC(C)=O` [Compound 10a, (2R,3S,4S,5R,6R)-2-(acetoxymethyl)-6-(4-(((5-(p-tolyl)pyrazolo[1,5-a]pyrimidin-7-yl)oxy)methyl)-1H-1,2,3-triazol-1-yl)tetrahydro-2H-pyran-3,4,5-triyl triacetate], under setting [1], the viability at 10 µM was determined as 81.7 ± 8.36%, the viability at 25 µM came out at 78.5 ± 6.73% and the viability at 50 µM came to 68.8 ± 10.4%.

As for `CC(=O)OC[C@H]1O[C@H](n2cc(COc3cc(-c4ccc(C)cc4)nc4ccnn34)nn2)[C@@H](OC(C)=O)[C@@H](OC(C)=O)[C@@H]1OC(C)=O` [Compound 11a, (2R,3R,4S,5S,6S)-2-(acetoxymethyl)-6-(4-(((5-(p-tolyl)pyrazolo[1,5-a]pyrimidin-7-yl)oxy)methyl)-1H-1,2,3-triazol-1-yl)tetrahydro-2H-pyran-3,4,5-triyl triacetate], under setting [1], the viability at 10 µM stood at 98 ± 7.7%, the viability at 25 µM was found to be 91.8 ± 7.09% and the viability at 50 µM amounted to 96.7 ± 9.12%.

In the case of `CC(=O)OC[C@H]1O[C@H](n2cc(COc3cc(-c4ccc5ccccc5c4)nc4ccnn34)nn2)[C@@H](OC(C)=O)[C@@H](OC(C)=O)[C@@H]1OC(C)=O` [Compound 11h, (2R,3R,4S,5S,6S)-2-(acetoxymethyl)-6-(4-(((5-(naphthalen-2-yl)pyrazolo[1,5-a]pyrimidin-7-yl)oxy)methyl)-1H-1,2,3-triazol-1-yl)tetrahydro-2H-pyran-3,4,5-triyl triacetate], under setting [1], the viability at 10 µM turned out to be 101 ± 9.28%, the viability at 25 µM was 89.8 ± 2.22% and the viability at 50 µM turned out to be 82.5 ± 5.45%.

As for `CC(=O)OC[C@H]1O[C@@H](n2cc(COc3cc(-c4ccc(Br)cc4)nc4ccnn34)nn2)[C@H](OC(C)=O)[C@@H](OC(C)=O)[C@H]1OC(C)=O` [Compound 10c, (2R,3S,4S,5R,6R)-2-(acetoxymethyl)-6-(4-(((5-(4-bromophenyl)pyrazolo[1,5-a]pyrimidin-7-yl)oxy)methyl)-1H-1,2,3-triazol-1-yl)tetrahydro-2H-pyran-3,4,5-triyl triacetate], under setting [1], the viability at 10 µM was 79.5 ± 2.43%, the viability at 25 µM came out at 77.8 ± 2.43% and the viability at 50 µM was determined as 74 ± 2.62%.

Regarding `COc1ccc(-c2cc(O)n3nccc3n2)cc1` [Compound 4b], under setting [2], the viability at 10 µM was 85.1 ± 8.53%, the viability at 25 µM amounted to 80.1 ± 3.51% and the viability at 50 µM was 70.5 ± 5.69%.

On to `Oc1cc(-c2ccc(F)cc2)nc2ccnn12` [Compound 4e], for which, under setting [2], the viability at 10 µM worked out at 86.6 ± 9.76%, the viability at 25 µM came to 78.1 ± 3.51% and the viability at 50 µM came out at 69.5 ± 5.69%.
